Numbered stars: 1 amine (or outer) side, 2 acyl side, 3 side chain; on linkers, the order of the positions; unused ones are H or OH. Bridge positions count the residues as written; N and C are the ends. Square brackets hold non-standard residues; d marks the D form. Peptide text beside a SMILES is read from it. I, II: the chains in the order shown. Diglycolyl = O=C(COCC(=O)[*:2])[*:1]; NMeR = CN[C@@H](CCCNC(=N)N)C(=O)O; NMeK = CN[C@@H](CCCCN)C(=O)O; Pen = CC(C)(S)[C@H](N)C(=O)O; dNMeK = CN[C@H](CCCCN)C(=O)O
What was measured:
α4β1 = α4β1 (Homo sapiens, UniProt P05556+P13612); experiment: α4β1-VCAM Cell Adhesion Assay (Jurkat E6.1 human cells); assay type: cell-based; design: host or cells: Jurkat E6.1 human T cells; conditions: Table 4-B; read-out: Cell Adhesion α4β1 IC50
Chain of α4β1 (P13612 34-1032): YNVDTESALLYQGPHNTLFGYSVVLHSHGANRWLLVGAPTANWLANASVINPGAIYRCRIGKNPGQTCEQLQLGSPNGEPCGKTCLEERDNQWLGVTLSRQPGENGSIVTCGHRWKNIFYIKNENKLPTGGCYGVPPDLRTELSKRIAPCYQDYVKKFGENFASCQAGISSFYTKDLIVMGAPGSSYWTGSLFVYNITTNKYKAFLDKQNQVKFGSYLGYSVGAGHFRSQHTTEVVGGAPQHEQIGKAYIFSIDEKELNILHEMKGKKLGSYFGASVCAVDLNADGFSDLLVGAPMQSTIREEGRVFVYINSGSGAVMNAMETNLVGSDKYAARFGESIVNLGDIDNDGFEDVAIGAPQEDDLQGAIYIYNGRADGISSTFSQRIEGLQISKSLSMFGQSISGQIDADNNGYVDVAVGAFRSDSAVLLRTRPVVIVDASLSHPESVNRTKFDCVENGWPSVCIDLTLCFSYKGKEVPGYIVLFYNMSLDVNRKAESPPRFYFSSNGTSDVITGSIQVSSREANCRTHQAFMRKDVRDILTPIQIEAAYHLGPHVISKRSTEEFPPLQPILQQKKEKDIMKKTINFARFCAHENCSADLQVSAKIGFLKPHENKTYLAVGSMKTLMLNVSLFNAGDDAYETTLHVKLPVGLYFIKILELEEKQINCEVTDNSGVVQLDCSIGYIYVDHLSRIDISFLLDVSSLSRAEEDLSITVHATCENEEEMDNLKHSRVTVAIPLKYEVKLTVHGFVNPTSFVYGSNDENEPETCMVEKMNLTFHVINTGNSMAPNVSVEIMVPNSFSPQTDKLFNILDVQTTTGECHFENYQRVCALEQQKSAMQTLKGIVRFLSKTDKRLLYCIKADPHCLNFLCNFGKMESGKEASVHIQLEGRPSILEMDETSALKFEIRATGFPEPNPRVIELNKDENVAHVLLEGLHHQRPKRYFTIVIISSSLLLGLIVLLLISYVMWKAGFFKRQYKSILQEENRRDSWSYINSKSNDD
Chain of α4β1 (P05556 21-798): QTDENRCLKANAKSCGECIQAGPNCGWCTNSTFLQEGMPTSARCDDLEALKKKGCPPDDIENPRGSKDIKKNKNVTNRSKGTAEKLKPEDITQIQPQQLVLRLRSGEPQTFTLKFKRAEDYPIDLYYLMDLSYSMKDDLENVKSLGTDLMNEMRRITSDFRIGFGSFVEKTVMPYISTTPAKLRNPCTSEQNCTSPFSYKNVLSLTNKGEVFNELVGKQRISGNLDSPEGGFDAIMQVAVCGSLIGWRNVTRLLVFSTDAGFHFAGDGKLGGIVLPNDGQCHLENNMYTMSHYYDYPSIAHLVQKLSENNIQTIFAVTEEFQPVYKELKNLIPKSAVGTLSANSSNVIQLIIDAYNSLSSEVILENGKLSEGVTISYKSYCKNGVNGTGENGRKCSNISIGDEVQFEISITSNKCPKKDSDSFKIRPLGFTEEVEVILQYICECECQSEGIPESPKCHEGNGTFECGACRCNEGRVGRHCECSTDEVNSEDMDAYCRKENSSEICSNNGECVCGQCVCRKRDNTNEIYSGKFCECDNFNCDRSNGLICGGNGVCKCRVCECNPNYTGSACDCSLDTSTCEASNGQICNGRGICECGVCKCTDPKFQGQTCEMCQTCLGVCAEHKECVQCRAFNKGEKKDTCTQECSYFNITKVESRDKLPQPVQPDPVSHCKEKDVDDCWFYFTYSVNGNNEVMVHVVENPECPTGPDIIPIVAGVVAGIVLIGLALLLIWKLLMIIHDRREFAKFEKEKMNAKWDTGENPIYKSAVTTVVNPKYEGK
Outline: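 Jurkat E6.1 cells in DMEM with 0.1% BSA, 10 mM HEPES pH 7 and 1 mM MnCl2 were added (200,000/well) with serially diluted peptides to rh VCAM-1-Fc-coated wells (400 ng/well) for 30-45 min at 37 °C. Adherent cells after washing were quantified by MTT, absorbance 570 nm, with no-cell background subtracted for dose response.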

Plasma Stability Assay = assay type: in vitro ADME; conditions: rat, Table 4-C, t1/2
Outline: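 Rat plasma at 37° C with gentle shaking, peptide added from 10 mM stock; samples taken at 0, 10, 30, 45, 60, 120 and 180 min and quenched 1:4 with acetonitrile/0.1% formic acid. After centrifugation, supernatants were mixed with internal standard peptide (1 ug/mL) and analysed by LC-MS.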

[1] = Dithiothreitol (DTT) Redox Stability Assay; assay type: physicochemical; conditions: Table 4-C, t1/2, 0.5 mM DTT
Procedure: For each peptide tested, the DTT stability assay was conducted by adding 5 μl of a 10 mM peptide stock solution in DMSO to 1 ml of 100 mM Tris-Cl, pH 7.5 (final peptide concentration is 50 μM). At time 0 min, 5 ul of a freshly thawed 100 mM DTT solution was added to the incubation tube containing the peptide, such that the final DTT concentration was 0.5 mM. The reactions were incubated at room temperature. At different time points up to 120 minutes (20 min, 40 min, 80 min, 120 min), 50 ul aliquots were removed, and the reaction was quenched by adding 10 μl of 5M acetic acid. To measure disappearance of the parent peptide, the quenched samples (30 μl) were analyzed by reverse phase HPLC and UV absorbance at 220 nm. The fraction oxidized remaining was graphed versus time, and half-lives were calculated by fitting to a first-order exponential decay equation using Excel.

α4β7 = target: T1, α4β7 (Mus musculus, UniProt P26011+Q00651); experiment: α4β7 Cell Adhesion Assay (Mouse), TK1 cells; assay type: cell-based; conditions: Table 4-B; read-out: Cell Adhesion α4β7 Mouse IC50
T1 construct: host or cells: TK1 mouse T cells
T1 sequence (Q00651 34-1039 limits assumed): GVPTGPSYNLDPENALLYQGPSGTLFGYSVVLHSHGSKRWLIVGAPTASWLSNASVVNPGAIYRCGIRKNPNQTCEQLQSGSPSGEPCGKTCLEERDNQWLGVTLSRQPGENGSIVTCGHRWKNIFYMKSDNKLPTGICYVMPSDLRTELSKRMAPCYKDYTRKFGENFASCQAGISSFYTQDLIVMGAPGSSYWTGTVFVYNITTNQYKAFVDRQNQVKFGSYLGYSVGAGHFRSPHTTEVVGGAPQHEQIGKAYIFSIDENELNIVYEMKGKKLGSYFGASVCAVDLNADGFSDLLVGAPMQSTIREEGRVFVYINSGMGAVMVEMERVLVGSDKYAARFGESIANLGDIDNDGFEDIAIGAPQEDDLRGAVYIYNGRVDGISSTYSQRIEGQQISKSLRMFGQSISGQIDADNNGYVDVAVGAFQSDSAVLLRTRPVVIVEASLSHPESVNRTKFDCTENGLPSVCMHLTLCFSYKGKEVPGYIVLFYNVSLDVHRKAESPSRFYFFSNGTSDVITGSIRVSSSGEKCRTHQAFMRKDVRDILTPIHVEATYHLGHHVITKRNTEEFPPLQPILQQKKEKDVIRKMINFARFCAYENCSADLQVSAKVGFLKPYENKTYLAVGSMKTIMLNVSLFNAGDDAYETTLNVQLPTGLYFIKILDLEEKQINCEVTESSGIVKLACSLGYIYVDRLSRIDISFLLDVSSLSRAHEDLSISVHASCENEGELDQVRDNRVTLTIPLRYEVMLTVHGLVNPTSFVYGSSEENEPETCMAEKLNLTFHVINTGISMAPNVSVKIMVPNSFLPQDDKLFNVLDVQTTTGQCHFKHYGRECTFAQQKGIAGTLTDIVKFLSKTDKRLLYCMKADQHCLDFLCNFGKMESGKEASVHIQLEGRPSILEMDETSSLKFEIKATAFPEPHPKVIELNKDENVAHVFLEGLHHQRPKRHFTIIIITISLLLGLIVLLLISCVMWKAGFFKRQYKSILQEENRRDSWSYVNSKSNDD
T1 sequence (P26011 20-806): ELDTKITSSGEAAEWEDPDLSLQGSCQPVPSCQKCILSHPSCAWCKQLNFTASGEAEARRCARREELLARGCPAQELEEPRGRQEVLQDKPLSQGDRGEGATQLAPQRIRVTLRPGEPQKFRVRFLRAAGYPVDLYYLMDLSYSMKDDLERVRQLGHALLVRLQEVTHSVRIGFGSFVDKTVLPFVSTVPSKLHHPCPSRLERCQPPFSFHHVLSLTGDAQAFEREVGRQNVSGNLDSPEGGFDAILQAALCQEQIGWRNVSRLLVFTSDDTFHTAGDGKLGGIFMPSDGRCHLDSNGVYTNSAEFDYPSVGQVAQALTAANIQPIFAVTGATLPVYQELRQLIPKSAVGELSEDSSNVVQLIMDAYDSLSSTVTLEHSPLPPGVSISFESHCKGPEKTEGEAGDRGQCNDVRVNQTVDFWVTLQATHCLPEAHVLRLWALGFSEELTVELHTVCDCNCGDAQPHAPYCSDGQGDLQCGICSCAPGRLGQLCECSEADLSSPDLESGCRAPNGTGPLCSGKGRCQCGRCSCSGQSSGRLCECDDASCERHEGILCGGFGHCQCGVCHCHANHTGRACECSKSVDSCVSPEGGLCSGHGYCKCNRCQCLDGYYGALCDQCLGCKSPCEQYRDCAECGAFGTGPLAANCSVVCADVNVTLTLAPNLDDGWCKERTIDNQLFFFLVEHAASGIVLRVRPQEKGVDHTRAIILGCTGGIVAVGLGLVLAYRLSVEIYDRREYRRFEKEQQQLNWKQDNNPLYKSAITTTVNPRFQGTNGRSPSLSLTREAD
Outline: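 Mouse TK1 cells in DMEM with 0.1% BSA, 10 mM HEPES pH 7 and 1 mM MnCl2 were allowed to adhere for 30-45 min at 37 °C to plates coated with recombinant human MAdCAM-1 Fc (200 ng/well) in the presence of serially diluted peptides. Adherent cells were quantified by MTT absorbance at 570 nm, with no-cell background subtracted for dose response.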

Structure (SMILES)	IC50 (α4β1) [nM]	half-life at 20 μM (Plasma Stability Assay) [h]	DTT Min [1] [min]	IC50 (α4β7) [nM]
CC(=O)N[C@H]1CSSC(C)(C)[C@@H](C(=O)N[C@H](CCCCN)C(N)=O)NC(=O)[C@H](CC(C)C)NC(=O)[C@H]([C@@H](C)O)NC(=O)[C@H](CC(=O)O)NC(=O)[C@H](CO)NC(=O)[C@H](CCCNC(=N)N)N(C)C1=O [compound 202, Ac-C-N-Me-R-S-D-T-L-Pen-k-NH2] (Ac-C[NMeR]SDTL[Pen][dK]-NH2; disulfide 1-7)	> 100000	> 6	42	–
CC(=O)N[C@H]1CSSC(C)(C)[C@@H](C(=O)N[C@@H](Cc2c[nH]c3ccccc23)C(=O)N[C@H](CCCCNC(=O)COCC(=O)NCCCC[C@@H](NC(=O)[C@H](Cc2c[nH]c3ccccc23)NC(=O)[C@H]2NC(=O)[C@H](CC(C)C)NC(=O)[C@H]([C@@H](C)O)NC(=O)[C@H](CC(=O)O)NC(=O)[C@H](CO)NC(=O)[C@H](CCCNC(=N)N)N(C)C(=O)[C@@H](NC(C)=O)CSSC2(C)C)C(N)=O)C(N)=O)NC(=O)[C@H](CC(C)C)NC(=O)[C@H]([C@@H](C)O)NC(=O)[C@H](CC(=O)O)NC(=O)[C@H](CO)NC(=O)[C@H](CCCNC(=N)N)N(C)C1=O [compound 204, (Ac-C-N-Me-R-S-D-T-L-Pen-W-k-NH2)2-DIG] (I: Ac-C[NMeR]SDTL[Pen]W[dK]-NH2 / II: Ac-C[NMeR]SDTL[Pen]W[dK]-NH2; disulfide I:1-I:7, II:1-II:7 (inferred); linker I:9-II:9 via Diglycolyl (inferred))	> 100000	> 6	27	–
CC(=O)N[C@H]1CSSC(C)(C)[C@@H](C(=O)N[C@@H](CCC(=O)O)C(=O)N[C@H](CCCCNC(=O)COCC(=O)NCCCC[C@@H](NC(=O)[C@H](CCC(=O)O)NC(=O)[C@H]2NC(=O)[C@H](CC(C)C)NC(=O)[C@H]([C@@H](C)O)NC(=O)[C@H](CC(=O)O)NC(=O)[C@H](CO)NC(=O)[C@H](CCCNC(=N)N)N(C)C(=O)[C@@H](NC(C)=O)CSSC2(C)C)C(N)=O)C(N)=O)NC(=O)[C@H](CC(C)C)NC(=O)[C@H]([C@@H](C)O)NC(=O)[C@H](CC(=O)O)NC(=O)[C@H](CO)NC(=O)[C@H](CCCNC(=N)N)N(C)C1=O [compound 205, (Ac-C-N-Me-R-S-D-T-L-Pen-E-k-NH2)2-DIG] (I: Ac-C[NMeR]SDTL[Pen]E[dK]-NH2 / II: Ac-C[NMeR]SDTL[Pen]E[dK]-NH2; disulfide I:1-I:7, II:1-II:7 (inferred); linker I:9-II:9 via Diglycolyl (inferred))	–	> 6	42	–
CC(=O)N[C@@H]1C(=O)N(C)[C@@H](CCCNC(=N)N)C(=O)N[C@@H](CO)C(=O)N[C@@H](CC(=O)O)C(=O)N[C@@H]([C@@H](C)O)C(=O)N[C@@H](CC(C)C)C(=O)N[C@H](C(=O)N[C@@H](Cc2c[nH]c3ccccc23)C(=O)N[C@H](CCCCNC(=O)COCC(=O)NCCCC[C@@H](NC(=O)[C@H](Cc2c[nH]c3ccccc23)NC(=O)[C@H]2NC(=O)[C@H](CC(C)C)NC(=O)[C@H]([C@@H](C)O)NC(=O)[C@H](CC(=O)O)NC(=O)[C@H](CO)NC(=O)[C@H](CCCNC(=N)N)N(C)C(=O)[C@@H](NC(C)=O)C(C)(C)SSC2(C)C)C(N)=O)C(N)=O)C(C)(C)SSC1(C)C [compound 209, (Ac-Pen-N-Me-R-S-D-T-L-Pen-W-k-NH2)2-DIG] (I: Ac-[Pen][NMeR]SDTL[Pen]W[dK]-NH2 / II: Ac-[Pen][NMeR]SDTL[Pen]W[dK]-NH2; disulfide I:1-I:7, II:1-II:7 (inferred); linker I:9-II:9 via Diglycolyl (inferred))	> 100000	> 3	>120	51
CC(=O)N[C@@H]1C(=O)N(C)[C@@H](CCCNC(=N)N)C(=O)N[C@@H](CO)C(=O)N[C@@H](CC(=O)O)C(=O)N[C@@H]([C@@H](C)O)C(=O)N[C@@H](CC(C)C)C(=O)N[C@H](C(=O)N[C@@H](Cc2c[nH]c3ccccc23)C(=O)N[C@@H](CCC(=O)O)C(=O)N(C)[C@H](CCCCNC(=O)COCC(=O)NCCCC[C@H](C(N)=O)N(C)C(=O)[C@H](CCC(=O)O)NC(=O)[C@H](Cc2c[nH]c3ccccc23)NC(=O)[C@H]2NC(=O)[C@H](CC(C)C)NC(=O)[C@H]([C@@H](C)O)NC(=O)[C@H](CC(=O)O)NC(=O)[C@H](CO)NC(=O)[C@H](CCCNC(=N)N)N(C)C(=O)[C@@H](NC(C)=O)C(C)(C)SSC2(C)C)C(N)=O)C(C)(C)SSC1(C)C [compound 214, [Ac-Pen-(N-Me-Arg)-Ser-Asp-Thr-Leu-Pen-Trp-Glu-(N-Me-D-Lys)-NH2]2-DIG] (I: Ac-[Pen][NMeR]SDTL[Pen]WE[dNMeK]-NH2 / II: Ac-[Pen][NMeR]SDTL[Pen]WE[dNMeK]-NH2; disulfide I:1-I:7, II:1-II:7 (inferred); linker I:10-II:10 via Diglycolyl (inferred))	–	> 6	>120	1.1
CC(=O)N[C@@H]1C(=O)N(C)[C@@H](CCCNC(=N)N)C(=O)N[C@@H](CO)C(=O)N[C@@H](CC(=O)O)C(=O)N[C@@H]([C@@H](C)O)C(=O)N[C@@H](CC(C)C)C(=O)N[C@H](C(=O)N[C@@H](Cc2c[nH]c3ccccc23)C(=O)N[C@@H](CCC(=O)O)C(=O)N(C)[C@@H](CCCCNC(=O)COCC(=O)NCCCC[C@@H](C(N)=O)N(C)C(=O)[C@H](CCC(=O)O)NC(=O)[C@H](Cc2c[nH]c3ccccc23)NC(=O)[C@H]2NC(=O)[C@H](CC(C)C)NC(=O)[C@H]([C@@H](C)O)NC(=O)[C@H](CC(=O)O)NC(=O)[C@H](CO)NC(=O)[C@H](CCCNC(=N)N)N(C)C(=O)[C@@H](NC(C)=O)C(C)(C)SSC2(C)C)C(N)=O)C(C)(C)SSC1(C)C [compound 215, [Ac-Pen-(N-Me-Arg)-Ser-Asp-Thr-Leu-Pen-Trp-Glu-(N-Me-Lys)-NH2]2-DIG] (I: Ac-[Pen][NMeR]SDTL[Pen]WE[NMeK]-NH2 / II: Ac-[Pen][NMeR]SDTL[Pen]WE[NMeK]-NH2; disulfide I:1-I:7, II:1-II:7 (inferred); linker I:10-II:10 via Diglycolyl (inferred))	–	> 6	>120	0.9
CC(=O)N[C@@H]1C(=O)N(C)[C@@H](CCCNC(=N)N)C(=O)N[C@@H](CO)C(=O)N[C@@H](CC(=O)O)C(=O)N[C@@H]([C@@H](C)O)C(=O)N[C@@H](CC(C)C)C(=O)N[C@H](C(=O)N[C@@H](Cc2c[nH]c3ccccc23)C(=O)N[C@H](CCC(=O)O)C(=O)N[C@H](CCCCNC(=O)COCC(=O)NCCCC[C@@H](NC(=O)[C@@H](CCC(=O)O)NC(=O)[C@H](Cc2c[nH]c3ccccc23)NC(=O)[C@H]2NC(=O)[C@H](CC(C)C)NC(=O)[C@H]([C@@H](C)O)NC(=O)[C@H](CC(=O)O)NC(=O)[C@H](CO)NC(=O)[C@H](CCCNC(=N)N)N(C)C(=O)[C@@H](NC(C)=O)C(C)(C)SSC2(C)C)C(=O)O)C(=O)O)C(C)(C)SSC1(C)C [compound 216, (Ac-Pen-N-Me-R-S-D-T-L-Pen-W-e-k-OH)2-DIG] (I: Ac-[Pen][NMeR]SDTL[Pen]W[dE][dK]-OH / II: Ac-[Pen][NMeR]SDTL[Pen]W[dE][dK]-OH; disulfide I:1-I:7, II:1-II:7 (inferred); linker I:10-II:10 via Diglycolyl (inferred))	> 100000	> 3	–	1
CC(=O)N[C@@H]1C(=O)N(C)[C@@H](CCCNC(=N)N)C(=O)N[C@@H](CO)C(=O)N[C@@H](CC(=O)O)C(=O)N[C@@H]([C@@H](C)O)C(=O)N[C@@H](CC(C)C)C(=O)N[C@H](C(=O)N[C@@H](Cc2c[nH]c3ccccc23)C(=O)N[C@@H](CCC(=O)O)C(=O)N[C@H](CCCCNC(=O)COCC(=O)NCCCC[C@@H](NC(=O)[C@H](CCC(=O)O)NC(=O)[C@H](Cc2c[nH]c3ccccc23)NC(=O)[C@H]2NC(=O)[C@H](CC(C)C)NC(=O)[C@H]([C@@H](C)O)NC(=O)[C@H](CC(=O)O)NC(=O)[C@H](CO)NC(=O)[C@H](CCCNC(=N)N)N(C)C(=O)[C@@H](NC(C)=O)C(C)(C)SSC2(C)C)C(N)=O)C(N)=O)C(C)(C)SSC1(C)C [compound 217, (Ac-Pen-N-Me-R-S-D-T-L-Pen-W-E-k-NH2)2-DIG] (I: Ac-[Pen][NMeR]SDTL[Pen]WE[dK]-NH2 / II: Ac-[Pen][NMeR]SDTL[Pen]WE[dK]-NH2; disulfide I:1-I:7, II:1-II:7 (inferred); linker I:10-II:10 via Diglycolyl (inferred))	> 100000	> 2	>120	1.2
